From PubChem BioAssay (NCI)
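Tested at 5 concentrations; 48 h exposure; 96-well plates; endpoints linearly interpolated, else capped at highest concentration. GI50 marks 50% less growth. The concentration for full growth arrest is given as TGI.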

What follows are compounds tested on HCT-15 colon (assay: NCI-60 cell line screen, 48 h).
For `c1cc[c]([Pb]([c]2ccccc2)[c]2ccccc2)cc1`, the GI50 was 12.4 µM and the TGI was 28.4 µM.
Compound `COc1ccc2nc3cc(Cl)ccc3c(NCCN)c2c1` has a GI50 of 1.87 µM and a TGI of 3.9 µM.
In the case of `CCCCN1CSC(=S)N(Cc2ccccc2)C1`, the TGI was > 100 µM.
With `CC(=O)N1C/C(=C\c2ccc(N(C)C)cc2)C(=O)/C(=C/c2ccc(N(C)C)cc2)C1` the TGI was > 100 µM.
`CC(C)(C)c1ccc(O)c(CN(Cc2cc(C(C)(C)C)ccc2O)c2ccccc2)c1` gave a TGI of 35.8 µM.
With `COC1=CC2(C=CC1=O)c1cc(OC)c(OC)cc1CCN2C(=O)c1ccccc1` (configuration not stated) the TGI was > 100 µM.
`Cc1[nH]c2ccccc2c1C1Cc2ccccc2N1C(=O)/C(Cl)=C/c1ccccc1` (configuration not stated) was tested, and the TGI was > 100 µM.

Each compound was assayed on HCC-2998 colon (assay: NCI-60 cell line screen, 48 h).
`COc1ccc(/C(Cl)=C(\C=O)c2ccc([N+](=O)[O-])cc2)cc1` was tested, and the TGI was 62.6 µM.
For `COc1ccc(-n2cc(-c3cc(OC)c(OC)c(OC)c3)[nH]c2=O)cc1Cl`, the GI50 was > 100 µM and the TGI was > 100 µM.
In the case of `Cc1ccc(-c2cc(=O)c3cc(C)c(C)c(C(=O)O)c3o2)cc1C`, the TGI was > 100 µM.
In the case of `O=C(/C=C/c1c(O)ccc2ccccc12)c1ccccc1`, the TGI was > 100 µM.
In the case of `Cc1nc2ccccc2c(=O)n1-c1ccccc1F`, the TGI was > 100 µM.
In the case of `Fc1ccc(C2SCc3nc4ccccc4n32)cc1Cl` (configuration not stated), the TGI was 37.2 µM.
In the case of `C=C1CC[C@@H]2[C@](C)(COC(C)=O)[C@H](OC(C)=O)CC[C@@]2(C)[C@@H]1CC(Nc1ccc(S(=O)(=O)Nc2ncccn2)cc1)C1=CCOC1=O` (some centres not stated), the GI50 was 2.1 µM and the TGI was 3.81 µM.
For `CC1=N/C(=C\c2cccc([N+](=O)[O-])c2)C(=O)O1`, the TGI was > 100 µM.
In the case of `C=C1C(=O)O[C@H]2[C@H]1CC/C(COC(=O)c1cc3ccccc3s1)=C\CC[C@@]1(C)O[C@@H]21`, the GI50 was 1.75 µM and the TGI was 3.23 µM.
With `COc1ccc(/C=C\c2cc(OC)c(OC)c(OC)c2)cc1OC(=O)NCCN(C)C` the GI50 was < 0.0469 µM and the TGI was 0.487 µM.
`CCCCOC(=O)NC(=O)c1cn(C2CCCCC2)c(=O)[nH]c1=O` was tested, and the TGI was > 100 µM.
With `Cc1ccc(NC(=O)NCCCOc2ccc(N3C(N)=NC(N)=NC3(C)C)cc2Cl)cc1S(=O)(=O)F` the GI50 was 21.5 µM and the TGI was > 100 µM.
`CC[CH2][Sn]([Cl])([Cl])[CH2]CC.Oc1ccccc1C=NCCN=Cc1ccccc1O` gave a GI50 of 11.1 µM and a TGI of 23.8 µM.
With `COc1cc2c(c(OC)c1)C1(CC(CC#N)C2)SCCS1` (configuration not stated) the TGI was > 100 µM.
`CCOC(=O)CCn1[nH]c(=O)c(Cl)c(Cl)c1=O` was tested, and the TGI was > 100 µM.
In the case of `COc1ccccc1Cn1cc2c(c1-c1ccccc1)CCc1cnoc1-2`, the GI50 was 5.48 µM and the TGI was > 100 µM.
With `COc1ccc(CNc2nc3cc(C(F)(F)F)ccc3nc2C)cc1OC` the TGI was 58.9 µM.
For `C/C=C1/C(=C/c2[nH]c(/C=c3\[nH]/c(=C/C4=NC(=O)C(CC)=C4C)c(C)c3CCC(=O)O)c(CCC(=O)O)c2C)NC(=O)C1C` (configuration not stated), the GI50 was > 150 µg/mL and the TGI was > 150 µg/mL.
In the case of `COc1cccc(/C=C2\C(=O)N(C(=O)c3ccc(NC(C)=O)cc3)N=C2C)c1`, the TGI was > 100 µM.
For `C/C=C(\C)CC/C=C/CO[Si](C)(C)C(C)(C)C`, the TGI was > 100 µM.
With `N#CCc1ccc(C(C#N)/C(CCCC(=O)Nc2cccc([N+](=O)[O-])c2)=N/NC(N)=S)cc1` (configuration not stated) the TGI was > 100 µM.
`CNc1nc(N)c(N=O)c(Nc2ccc(Br)cc2)n1` was tested, and the TGI was > 100 µM.
Work on `COc1ccc(-c2nnc(COc3ccc(NC(=O)Nc4ccc(Cl)c(C(F)(F)F)c4)cc3F)o2)cc1` yielded a GI50 of 4.86 µM and a TGI of 53.1 µM.
`NCCCn1c2c(c3ccc([N+](=O)[O-])cc3c1=O)C(=O)c1cc(Br)ccc1-2` showed a GI50 of 0.154 µM.
With `CC(C)c1ccc(C(c2ccc(OCC(=O)O)cc2)c2ccc(C(C)C)cc(=O)c2O)c(O)c(=O)c1` the TGI was 20.3 µM.
For `CN1C(=O)c2ccccc2NC(=O)C12O[C@@H]2c1cccc(O)c1` (some centres not stated), the TGI was > 100 µM.
`N#C/C(=C\c1cc2ccccc2c2ccccc12)c1ccccc1` showed a TGI of 59.2 µM.
In the case of `CCOc1ccc2c(c1)[n+]([O-])c(-c1nc3ccccc3s1)c(N)[n+]2[O-]`, the TGI was > 100 µM.
With `COc1ccc2c3c(coc13)C(CCC(=O)O)CC2` (configuration not stated) the TGI was > 100 µM.
In the case of `c1cc[c]([Pb]([c]2ccccc2)[c]2ccccc2)cc1`, the GI50 was 14.8 µM and the TGI was 37.3 µM.
`CC(=O)N1C/C(=C\c2ccc(N(C)C)cc2)C(=O)/C(=C/c2ccc(N(C)C)cc2)C1` was tested, and the TGI was > 100 µM.
In the case of `COC1=CC2(C=CC1=O)c1cc(OC)c(OC)cc1CCN2C(=O)c1ccccc1` (configuration not stated), the TGI was > 100 µM.
For `Cc1[nH]c2ccccc2c1C1Cc2ccccc2N1C(=O)/C(Cl)=C/c1ccccc1` (configuration not stated), the TGI was > 100 µM.

What follows are compounds tested on OVCAR-4 ovarian (assay: NCI-60 cell line screen, 48 h).
`COc1ccc(/C(Cl)=C(\C=O)c2ccc([N+](=O)[O-])cc2)cc1` showed a TGI of 57.3 µM.
With `COc1ccc(-n2cc(-c3cc(OC)c(OC)c(OC)c3)[nH]c2=O)cc1Cl` the GI50 was > 100 µM and the TGI was > 100 µM.
For `Cc1ccc(-c2cc(=O)c3cc(C)c(C)c(C(=O)O)c3o2)cc1C`, the TGI was > 100 µM.
With `O=C(/C=C/c1c(O)ccc2ccccc12)c1ccccc1` the TGI was > 100 µM.
In the case of `Cc1nc2ccccc2c(=O)n1-c1ccccc1F`, the TGI was > 100 µM.
With `Fc1ccc(C2SCc3nc4ccccc4n32)cc1Cl` (configuration not stated) the TGI was > 100 µM.
In the case of `C=C1CC[C@@H]2[C@](C)(COC(C)=O)[C@H](OC(C)=O)CC[C@@]2(C)[C@@H]1CC(Nc1ccc(S(=O)(=O)Nc2ncccn2)cc1)C1=CCOC1=O` (some centres not stated), the GI50 was 1.85 µM and the TGI was 5.26 µM.
For `C=C1C(=O)O[C@H]2[C@H]1CC/C(COC(=O)c1cc3ccccc3s1)=C\CC[C@@]1(C)O[C@@H]21`, the GI50 was 2.08 µM and the TGI was 4.57 µM.
For `CC(C)N1CN(C(C(=O)N[C@@H]2C(=O)N3C2SC(C)(C)C3C(=O)O)c2ccccc2)CSC1=S` (some centres not stated), the TGI was > 100 µM.
For `COc1cc2c3c(n(CCCCOC(=O)C(Cl)(Cl)Cl)c(=O)c2cc1OC)-c1cc2c(cc1C3=O)OCO2`, the GI50 was > 100 µM and the TGI was > 100 µM.
`CC(C)c1cc2c(O)c(c1)Cc1cc(C(C)C)cc(c1O)Cc1cc(C(C)C)cc(c1O)Cc1cc(C(C)C)cc(c1O)C2` was tested, and the TGI was > 100 µM.
Compound `CCCCOC(=O)NC(=O)c1cn(C2CCCCC2)c(=O)[nH]c1=O` has a TGI of 48.6 µM.
For `Cc1ccc(NC(=O)NCCCOc2ccc(N3C(N)=NC(N)=NC3(C)C)cc2Cl)cc1S(=O)(=O)F`, the GI50 was 15.1 µM and the TGI was > 100 µM.
`CC[CH2][Sn]([Cl])([Cl])[CH2]CC.Oc1ccccc1C=NCCN=Cc1ccccc1O` gave a GI50 of 8.21 µM and a TGI of 21 µM.
With `COc1cc2c(c(OC)c1)C1(CC(CC#N)C2)SCCS1` (configuration not stated) the TGI was > 100 µM.
`CCOC(=O)CCn1[nH]c(=O)c(Cl)c(Cl)c1=O` was tested, and the TGI was > 100 µM.
In the case of `COc1ccccc1Cn1cc2c(c1-c1ccccc1)CCc1cnoc1-2`, the GI50 was 8.56 µM and the TGI was > 100 µM.
`COc1ccc(CNc2nc3cc(C(F)(F)F)ccc3nc2C)cc1OC` gave a TGI of 43.1 µM.
`C/C=C1/C(=C/c2[nH]c(/C=c3\[nH]/c(=C/C4=NC(=O)C(CC)=C4C)c(C)c3CCC(=O)O)c(CCC(=O)O)c2C)NC(=O)C1C` (configuration not stated) was tested, and the GI50 was > 150 µg/mL and the TGI was > 150 µg/mL.
For `COc1cccc(/C=C2\C(=O)N(C(=O)c3ccc(NC(C)=O)cc3)N=C2C)c1`, the TGI was > 100 µM.
In the case of `C/C=C(\C)CC/C=C/CO[Si](C)(C)C(C)(C)C`, the TGI was > 100 µM.
`N#CCc1ccc(C(C#N)/C(CCCC(=O)Nc2cccc([N+](=O)[O-])c2)=N/NC(N)=S)cc1` (configuration not stated) was tested, and the TGI was > 100 µM.
`COC(C(O)c1ccc2c(c1)OCO2)P(=O)(c1ccccc1)c1ccccc1` (configuration not stated) was tested, and the TGI was 30.9 µM.
In the case of `COc1ccc(-c2nnc(COc3ccc(NC(=O)Nc4ccc(Cl)c(C(F)(F)F)c4)cc3F)o2)cc1`, the GI50 was 2.93 µM and the TGI was 13.7 µM.
`NCCCn1c2c(c3ccc([N+](=O)[O-])cc3c1=O)C(=O)c1cc(Br)ccc1-2` showed a GI50 of 0.102 µM.
Compound `CC(C)c1ccc(C(c2ccc(OCC(=O)O)cc2)c2ccc(C(C)C)cc(=O)c2O)c(O)c(=O)c1` has a TGI of 12.8 µM.
`CN1C(=O)c2ccccc2NC(=O)C12O[C@@H]2c1cccc(O)c1` (some centres not stated) was tested, and the TGI was > 100 µM.
`N#C/C(=C\c1cc2ccccc2c2ccccc12)c1ccccc1` showed a TGI of 34.6 µM.
For `CCOc1ccc2c(c1)[n+]([O-])c(-c1nc3ccccc3s1)c(N)[n+]2[O-]`, the TGI was > 100 µM.
For `COc1ccc2c3c(coc13)C(CCC(=O)O)CC2` (configuration not stated), the TGI was > 100 µM.
For `CSc1nc2cc(S(=O)(=O)N3CCCCC3)ccc2s1`, the TGI was > 100 µM.
In the case of `COc1ncc(-c2ccc3ncnc(Nc4cccc(Cl)c4)c3c2)cc1NS(=O)(=O)CCN1CCOCC1`, the GI50 was 1.14 µM and the TGI was > 100 µM.
For `c1cc[c]([Pb]([c]2ccccc2)[c]2ccccc2)cc1`, the GI50 was 22 µM and the TGI was > 100 µM.
Work on `COc1ccc2nc3cc(Cl)ccc3c(NCCN)c2c1` yielded a GI50 of 1.61 µM and a TGI of 3.02 µM.
`CCCCN1CSC(=S)N(Cc2ccccc2)C1` was tested, and the TGI was > 100 µM.
`CC(=O)N1C/C(=C\c2ccc(N(C)C)cc2)C(=O)/C(=C/c2ccc(N(C)C)cc2)C1` was tested, and the TGI was > 100 µM.
In the case of `CC(C)(C)c1ccc(O)c(CN(Cc2cc(C(C)(C)C)ccc2O)c2ccccc2)c1`, the TGI was 61.8 µM.
For `Cc1[nH]c2ccccc2c1C1Cc2ccccc2N1C(=O)/C(Cl)=C/c1ccccc1` (configuration not stated), the TGI was > 100 µM.
